# Ends that are not written are not given here. Peptide text beside a SMILES is read from it.
# What was measured:
# SIRT3 = SIRT3 transcription, semi-quantitative RT-PCR in human epidermal progenitors; type: cell-based; conditions: 72 h
# Protocol: Human neonatal epidermal progenitors (Thermo Fisher Scientific, NY) were seeded in 6-well plates at a density of 2×10^5 cells/well. Each well received 2 ml of Epilife media containing 60 μM calcium chloride (Thermo Fisher Scientific, NY). Plates were incubated in a humidified chamber at 37 degrees Celsius and 5 percent CO2. Twenty-four hours later, cells were treated with various concentrations of oxyresveratrol or decapeptide-12 dissolved in PBS containing 5 percent DMSO. Control wells received vehicle only (5 percent DMSO and PBS). Final concentration of DMSO in each well was 0.05 percent.
# After a 72 hour incubation period, cells were trypsinized and total RNA extracted, using RNeasy kit (Qiagen, Valencia, Calif.) according to the manufacturer's protocol.
# RNA concentration was determined using nanodrop (Thermo fisher scientific, NY). Two μg of total RNA were used to synthesize cDNA using oligo dT primers and TaqMan reverse transcription reagents (Thermo fisher scientific, NY). The reaction was carried out in DNA Engine Peltier Thermal Cycler (Bio-Rad, Hercules, Calif.). The annealing temperature was 25 degrees Celsius for 10 minutes, followed by first strand synthesis at 48 degrees Celsius for 1 hour, and heat inactivation at 95 degrees Celsius for 5 minutes.
# The SIRT1-7 primers (table 1) were designed using Primer3. The semi-quantitative PCR reactions were performed on a DNA Engine Peltier Thermo Cycler (Bio-Rad, Hercules, Calif.). PCR was carried under the following conditions: denaturation at 94 degrees Celsius for 2 minutes and primer extension at 54 degrees Celsius for 30 seconds in 34 cycles for SIRT 1-7 and the housekeeping gene 18S.
# Samples were run and resolved on a 1.5 percent agarose gel containing 0.5 μg/ml of ethidium bromide and imaged using the FluorChem HD2 Imaging System (Protein simple, San Jose, Calif.). Densitometry analysis was carried out using the AlphaEase FC software (Protein simple, San Jose, Calif.). Intensity ratios were calculated as the intensity value for each gene divided by the intensity value of the internal control gene 18S.
# The effect of the decapeptides P4, P4A, P4B, and P4C upon the transcription levels of sirtuins 1-7 was evaluated. Table 4 summarizes transcription levels for all four decapeptides with the corresponding genes, at tested concentrations of: 10, 30, 50, 100, and 300 (all in μM).
# [1] = MTT cell proliferation assay, melanoblasts; type: cell-based, human; conditions: human, MTT, 72 h, read-out: melanoblast proliferation rate after 72 hours
# Protocol: (§1) Proliferation rates for three human cell lines (epidermal progenitors, melanoblasts, and fibroblasts) were determined using a TACS® MTT Cell Proliferation Kit. Cells were seeded at 2.5×10^4/well in 96-well plates in a humidified atmosphere with 5 percent CO2 at 37 degrees Celsius. Twenty-four hours later, the decapeptides were added to the corresponding wells at varying concentrations and incubated for 72 hours. The remainder of the procedure was performed following the manufacturer's protocol.
# human skin = conditions: previously reported; cited from earlier work
# [2] = Trypan blue cell viability, 7 days, epidermal progenitors; type: cell-based; conditions: human, relative to control, read-out: epidermal progenitor viability after 7 days
# Protocol: The effect of each of the decapeptides upon cell viability was also tested. In particular, cells were incubated with the decapeptide at various concentrations and then counted for viability relative to the control (untreated cells) using trypan blue. Cytotoxicity was measured according to the following formula:
# [1−(# of cells in control−# of live cells in test sample)/# of cells in control]×100 percent.
# patients with dyschromia = conditions: topical cream containing 0.01 percent, twice daily for 8 weeks; cited from earlier work
# [3] = MTT cell proliferation assay, fibroblasts; type: cell-based, human; conditions: human, MTT, 72 h, read-out: fibroblast proliferation rate after 72 hours
# Protocol: as §1
# [4] = test system: human epidermal progenitors; experiment: Trypan blue dye exclusion cytotoxicity assay, 72 h, epidermal progenitors; type: cell-based; conditions: human epidermal progenitors; for cell death: 72 h, trypan blue
# Protocol: Cellular toxicity was measured using a trypan blue dye exclusion assay. Cells were cultured in 6-well plates at a density of 4×10^5 cells/well. Each well received a different concentration of decapeptide-12 or oxyresveratrol (0, 3, 10, 30, 100, 300, and 1000 μM). Plates were incubated at 37 degrees Celsius in a humidified 5 percent CO2 chamber. After 72 h, an aliquot was taken and cells counted using a hemacytometer. Cytotoxicity was measured according to the following formula: [1−(# of cells in control−# of live cells in test sample)/# of cells in control]×100 percent.
molecule,measurement,setting,value
"YRSRKYSSWY [decapeptide-12, YRSRKYSSWY]",SIRT3 transcription increase relative to control,SIRT3; 3 μM,4 ± 1%
same,SIRT3 transcription increase relative to control,SIRT3; 10 μM,9.2 ± 2.8%
same,SIRT3 transcription increase relative to control,"SIRT3; 10 μM, listed as P4",9 ± 3%
same,SIRT3 transcription increase relative to control,SIRT3; 30 μM,32.2 ± 6.1%
same,SIRT3 transcription increase relative to control,"SIRT3; 30 μM, listed as P4",32 ± 6%
same,SIRT3 transcription increase relative to control,SIRT3; 50 μM,65 ± 12.1%
same,SIRT3 transcription increase relative to control,"SIRT3; 50 μM, listed as P4",65 ± 12%
same,SIRT3 transcription increase relative to control,SIRT3; 100 μM,121±13%
same,SIRT3 transcription increase relative to control,"SIRT3; 100 μM, listed as Deca",121 ± 13.2%
same,SIRT3 transcription increase relative to control,"SIRT3; 100 μM, listed as P4",121 ± 13%
same,SIRT3 transcription increase relative to control,"SIRT3; 100 μM, listed as decapeptide",121%
same,SIRT3 transcription increase relative to control,SIRT3; 300 μM,165.2 ± 12.4%
same,SIRT3 transcription increase relative to control,"SIRT3; 300 μM, listed as P4",165 ± 12%
same,SIRT3 transcription increase relative to control,SIRT3; 500 μM,177 ± 9.2%
same,SIRT3 transcription increase relative to control,SIRT3; 1000 μM,171 ± 9%
same,"viability at 72 h, 3 µM",[1],100%
same,"viability at 72 h, 10 µM",[1],100%
same,"viability at 72 h, 30 µM",[1],99 ± 1%
same,"viability at 72 h, 50 µM",[1],98 ± 1%
same,"viability at 72 h, 100 µM",[1],97 ± 1%
same,"viability at 72 h, 300 µM",[1],97 ± 1%
same,"viability at 72 h, 500 µM",[1],95 ± 2%
same,"viability at 72 h, 1000 µM",[1],95 ± 2%
same,hypopigmenting efficacy,human skin,potent hypopigmenting efficacy
same,"viability at 168 h, 3 µM",[2],100%
same,"viability at 168 h, 10 µM",[2],99 ± 1%
same,"viability at 168 h, 30 µM",[2],98.4 ± 1%
same,"viability at 168 h, 50 µM",[2],97.8 ± 1%
same,"viability at 168 h, 100 µM",[2],97.1 ± 1%
same,"viability at 168 h, 300 µM",[2],95.6 ± 2%
same,"viability at 168 h, 500 µM",[2],94.2 ± 2%
same,"viability at 168 h, 1000 µM",[2],93.8 ± 2%
same,facial skin appearance,patients with dyschromia,overall improvement in facial skin appearance
same,"viability at 72 h, 3 µM",[3],100%
same,"viability at 72 h, 10 µM",[3],99 ± 1%
same,"viability at 72 h, 30 µM",[3],99 ± 1%
same,"viability at 72 h, 50 µM",[3],98 ± 1%
same,"viability at 72 h, 100 µM",[3],97 ± 1%
same,"viability at 72 h, 300 µM",[3],97 ± 1%
same,"viability at 72 h, 500 µM",[3],97 ± 2%
same,"viability at 72 h, 1000 µM",[3],96 ± 2%
same,cell death,[4]; 100 μM,3±1%
same,cell death,[4]; 1 mM,7±2%
same,cytotoxicity compared with oxyresveratrol,[4],reduced cytotoxicity
"CCCCCCCCCCCCCCCC(=O)N[C@@H](Cc1ccc(O)cc1)C(=O)N[C@@H](CCCNC(=N)N)C(=O)N[C@@H](CO)C(=O)N[C@@H](CCCNC(=N)N)C(=O)N[C@@H](CCCCN)C(=O)N[C@H](Cc1ccc(O)cc1)C(=O)N[C@@H](CO)C(=O)N[C@@H](CO)C(=O)N[C@@H](Cc1c[nH]c2ccccc12)C(=O)N[C@@H](Cc1ccc(O)cc1)C(N)=O [P4B, Palmitoyl-YRSRK[*Y]SSWY-amide] (HELM PEPTIDE1{[CCCCCCCCCCCCCCCC(=O)[*:2]].Y.R.S.R.K.[dY].S.S.W.Y.[am]}$$$$V2.0)",SIRT3 transcription increase relative to control,SIRT3; 10 μM,22 ± 3%
same,SIRT3 transcription increase relative to control,SIRT3; 30 μM,23 ± 2%
same,SIRT3 transcription increase relative to control,SIRT3; 50 μM,28 ± 5%
same,SIRT3 transcription increase relative to control,SIRT3; 100 μM,78 ± 10%
same,SIRT3 transcription increase relative to control,SIRT3; 300 μM,142 ± 5%
same,"viability at 72 h, 3 µM",[1],100%
same,"viability at 72 h, 10 µM",[1],100%
same,"viability at 72 h, 30 µM",[1],99 ± 1%
same,"viability at 72 h, 50 µM",[1],98 ± 1%
same,"viability at 72 h, 100 µM",[1],97 ± 2%
same,"viability at 72 h, 300 µM",[1],96 ± 2%
same,"viability at 72 h, 500 µM",[1],95 ± 2%
same,"viability at 72 h, 1000 µM",[1],94 ± 2%
same,"viability at 168 h, 3 µM",[2],100%
same,"viability at 168 h, 10 µM",[2],99 ± 1%
same,"viability at 168 h, 30 µM",[2],98.2 ± 1%
same,"viability at 168 h, 50 µM",[2],98 ± 1%
same,"viability at 168 h, 100 µM",[2],97 ± 1%
same,"viability at 168 h, 300 µM",[2],96.5 ± 2%
same,"viability at 168 h, 500 µM",[2],95.5 ± 2%
same,"viability at 168 h, 1000 µM",[2],94.5 ± 2%
same,"viability at 72 h, 3 µM",[3],100%
same,"viability at 72 h, 10 µM",[3],99 ± 1%
same,"viability at 72 h, 30 µM",[3],99 ± 1%
same,"viability at 72 h, 50 µM",[3],99 ± 1%
same,"viability at 72 h, 100 µM",[3],98 ± 2%
same,"viability at 72 h, 300 µM",[3],97 ± 2%
same,"viability at 72 h, 500 µM",[3],96 ± 2%
same,"viability at 72 h, 1000 µM",[3],96 ± 2%
"Ac-YRSRKYSSWY-NH2 [P4C, Acetyl-YRSRKYSSWY-amide]",SIRT3 transcription increase relative to control,SIRT3; 10 μM,8 ± 3%
same,SIRT3 transcription increase relative to control,SIRT3; 30 μM,6 ± 2%
same,SIRT3 transcription increase relative to control,SIRT3; 50 μM,45 ± 9%
same,SIRT3 transcription increase relative to control,SIRT3; 100 μM,82 ± 8%
same,SIRT3 transcription increase relative to control,SIRT3; 300 μM,159 ± 6%
same,"viability at 72 h, 3 µM",[1],100%
same,"viability at 72 h, 10 µM",[1],100%
same,"viability at 72 h, 30 µM",[1],99 ± 1%
same,"viability at 72 h, 50 µM",[1],98 ± 1%
same,"viability at 72 h, 100 µM",[1],97 ± 2%
same,"viability at 72 h, 300 µM",[1],96 ± 3%
same,"viability at 72 h, 500 µM",[1],95 ± 2%
same,"viability at 72 h, 1000 µM",[1],95 ± 2%
same,"viability at 168 h, 3 µM",[2],100%
same,"viability at 168 h, 10 µM",[2],99 ± 1%
same,"viability at 168 h, 30 µM",[2],98 ± 1%
same,"viability at 168 h, 50 µM",[2],97.4 ± 1%
same,"viability at 168 h, 100 µM",[2],96.6 ± 2%
same,"viability at 168 h, 300 µM",[2],95.7 ± 3%
same,"viability at 168 h, 500 µM",[2],94.8 ± 3%
same,"viability at 168 h, 1000 µM",[2],94 ± 3%
same,"viability at 72 h, 3 µM",[3],100%
same,"viability at 72 h, 10 µM",[3],99 ± 1%
same,"viability at 72 h, 30 µM",[3],99 ± 1%
same,"viability at 72 h, 50 µM",[3],99 ± 1%
same,"viability at 72 h, 100 µM",[3],98 ± 2%
same,"viability at 72 h, 300 µM",[3],97 ± 2%
same,"viability at 72 h, 500 µM",[3],96 ± 2%
same,"viability at 72 h, 1000 µM",[3],96 ± 2%
